Assay results from patent US11510964B2, “Macrocyclic peptides to decrease c-Myc protein levels and reduce cancer cell growth” (University of Kansas, priority 2017, dated 2022).
Entries after “also recorded” stand apart in the source; their conditions may differ. Where two headings read alike, the source gives them in different places. Non-standard residues stand in square brackets, D forms with d. Residues, ends and D or L forms follow the SMILES beside them.

Legend:
[1] = tested on: 22Rv1 cells; type: cell-based, human; conditions: read-out: IC50, cell growth
Procedure: (§1) Human prostate cancer PC-3 cells were cultured and maintained in EMEM (ATCC), non-prostate HEK (human embryonic kidney) cells were cultured in DMEM, human prostate cancer DU145, LNCaP, 22Rv1 cells were cultured in RPMI 1640 (ATCC), and normal BPH-1 prostate cells and prostate cancer C4-2 cell line were cultured in RPMI 1640 (ATCC), all containing 10% fetal bovine serum (Atlanta Biologicals) and 1% penicillin/streptomycin (Invitrogen). Cells were grown at 37° C. in humidified air with 5% CO2 and passaged every fourth to fifth day following trypsinization with trypsin/EDTA (Invitrogen).^16
(§2) PC-3, LNCaP, DU 145, 22Rv1, C4-2, BPH-1, and HEK cells were grown to a density of 2000 cells/well in 96 well plates and treated with [D-Trp]CJ-15,208 or other peptides for 24-72 h in duplicate. Media containing [D-Trp]CJ-15,208 was changed every 24 h. The proliferation of treated cells was determined using the cell proliferation reagent WST-1 (Roche) per the manufacturer's instructions and compared to […] control cells in 1% DMSO in media. After treatment with compound 10 μL of the reagent was added to the well in 100 μL culture media, and the cells incubated at 37° C. for 30 min. The absorbance of the media in each well was measured at […] using a plate reader (BioTek). The percentage cell proliferation was normalized to vehicle treated control cells calculated as: (mean absorbance of sample/mean absorbance of control cells)×100.^38
(§3) Each experiment was performed in triplicate unless otherwise stated in the figure legend. GraphPad Prism 5 was used to determine IC50 values. Data represent the mean value+/−SEM. Compound vs. vehicle treated cells in the cell cycle phase and apoptosis experiments (FIGS. 5-8) were compared using the student's t-test, with a two-tailed, unpaired method, using the Prism software. The effects of compound vs. vehicle treatment on protein levels (FIG. 10) were evaluated by one-way ANOVA with Dunnett's test for multiple comparisons.

[2] = tested on: DU145 cells; type: cell-based, human; conditions: read-out: IC50, cell growth
Procedure: as §1, §2, §3

[3] = tested on: LNCaP cells; type: cell-based, human; conditions: read-out: IC50, cell growth
Procedure: as §1, §2, §3

[4] = tested on: PC-3 cells; type: cell-based, human; conditions: read-out: IC50, cell growth
Procedure: as §1, §2, §3

[5] = tested on: BPH-1 cells; assay: Cell proliferation assay (WST-1); type: cell-based
Procedure: as §1, §2, §3

[6] = tested on: C4-2 cells; assay: Cell proliferation assay (WST-1); type: cell-based
Procedure: as §1, §2, §3

[7] = tested on: Erk in PC-3 cells; assay: Western blot of p-Erk/total Erk protein levels; type: cell-based, human
Procedure: Cells were seeded in 6 well plates at a density of 1×10^5 cells/well and grown to 75% confluence. Cells were treated with [D-Trp]CJ-15,208 at the indicated concentrations. Cells were then harvested as described above, and the cell pellets lysed in RIPA buffer consisting of 10 mM Tris HCl, pH 8.0, 150 mM NaCl, 1 mM EDTA, 1% Triton-X-100, 0.1% SDS, 1% sodium deoxycholate, and a protease inhibitor cocktail #P8340 (Sigma). Cell lysates were centrifuged at 13×1000 rpm for 15 min and the supernatants collected. The total protein concentration was measured in cell lysates using the standard Bradford assay. SDS gel electrophoresis was performed using 4-20% polyacrylamide gel (BioRad). […] Signal densities of the protein bands were determined using ImageJ software (NIH) and normalized to the internal loading control (actin).
Each experiment was performed in triplicate unless otherwise stated in the figure legend. […] The effects of compound vs. vehicle treatment on protein levels (FIG. 10) were evaluated by one-way ANOVA with Dunnett's test for multiple comparisons.

[8] = tested on: PC-3 cells xenograft tumors; assay: Mouse xenograft model, tumor growth inhibition; type: in vivo; conditions: PC-3 xenograft in nude mice, 30 mg/kg intraperitoneally three times per week
Procedure: An in-vivo study was performed to determine tumor growth inhibition by [D-Trp]CJ-15,208 in a mouse xenograft model. PC-3 cells were injected subcutaneously in both rear flanks of nude mice. Once tumors were established, mice were treated intraperitoneally three times per week with either vehicle (50% DMSO, 45% PEG 400, and 5% polyoxyethylene (20) sorbitan monooleate (Tween 80); 3 mice, 6 tumors) or [D-Trp]CJ-15,208 (30 mg/kg in vehicle; 2 mice, 3 tumors). Tumor volume was measured using calipers.

## O=C1N[C@H](Cc2c[nH]c3ccccc23)C(=O)N[C@@H](Cc2ccccc2)C(=O)N2CCC[C@@H]2C(=O)N[C@H]1Cc1ccccc1 [[D-Trp]CJ-15,208, cyclo[Phe-D-Pro-Phe-D-Trp]] (cyclo(F[dP]F[dW]))
[1]; 48 h
  IC50: 8800 ± 4000 nM
[1]; 72 h
  IC50: 4000 ± 800 nM
[2]; 48 h
  IC50: 1200 ± 200 nM
[2]; 72 h
  IC50: 700 ± 100 nM
[3]; 48 h
  IC50: > 50000 nM
[3]; 72 h
  IC50: 3000 ± 1000 nM
[4]; 48 h
  IC50: 16500 ± 700 nM
[4]; 72 h
  IC50: 2000 ± 1000 nM
[5]; 48 h
  IC50, cell growth: No effect
[5]; 72 h
  IC50, cell growth: No effect
[5]; time not stated
  effect on cell proliferation / cytotoxicity: No cytotoxicity was observed; also recorded: did not prevent cell proliferation
[6]; 48 h
  IC50, cell growth: No effect
[6]; 72 h
  IC50, cell growth: No effect
[6]; time not stated
  effect on cell proliferation: no effect; also recorded: did not prevent cell proliferation
[7]; PC-3, 48 h
  total Erk protein levels: did not decrease significantly
[7]; PC-3, increasing concentrations, 48 h
  cellular levels of p-Erk: did not change significantly
[8]
  tumor growth compared to vehicle: decrease in tumor growth
